Data reported in patent US20080241208A1, “Methods, Compositions and Devices For Promoting Anglogenesis” (priority 2005, published 2008).

Legend:
Rabbits = assay: In-vivo angiogenesis rabbit subcutaneous implant studies
Description: Rabbits were implanted subcutaneously with nitric oxide generating agent dibenzo[e,k]-2,3,8,9-tetramethyl-1,4,7,10-tetraaza-cyclododeca-1,3,7,9-tetraene, cyclen and plain polymer disks.

HUVECs = assay: In-vitro angiogenesis model: network formation in collagen gel matrix; assay type: cell-based; conditions: pulsed with PMA, bFGF and NOC18 (10-9) for 2 hr followed by PMA, bFGF and VEGF-C for 70 hr; AngioQuant; FIG. 3
Description: FIG. 4 depicts network formation in HUVECs cultured in collagen gel matrix and treated with PMA, bFGF, and VEGF-C for 72 hr (Positive control). […] Image on left of each figure is stained with phalloidin (cytoskeletal Actin-F marker) and the nuclear dye, Hoechst. Image on right depicts network formation (red lines) used by AngioQuant quantification program (Niemiströ et al 2005). Magnification=4×. The number of networks is 48 in FIG. 3, 44 in FIG. 4, 12 in FIG. 5.

SMILES	blood vessel formation around disks (Rabbits; explants sectioned and stained with H&E, 20× magnification)	angiogenic activity versus control (Rabbits; subcutaneous polymer disk explants at 28 d and 8 weeks)	number of networks (HUVECs)
CC1=C(C)N=c2ccccc2=NC(C)=C(C)N=c2ccccc2=N1 [dibenzo[e,k]-2,3,8,9-tetramethyl-1,4,7,10-tetraaza-cyclododeca-1,3,7,9-tetraene]	increased blood vessel formation	increased angiogenic activity	
NCCN(CCN)/[N+]([O-])=N/O [NOC18]			48
